“And” between values parts separate entries of the source, which are not always exact repeats. Equal values may be shown once. Square brackets hold non-standard residues; d marks the D form. Peptide text beside a SMILES is read from it. * marks the point of attachment. Piperidinyl(4-(1-Pro-OH)) = O=C(O)[C@@H]1CCCN1C1CCN(*)CC1; d(hArg) = N=C(N)NCCCC[C@@H](N)C(=O)O Where only a bound is given, the exact number is not on record here.

Series [1] has as its target T1, human kappa opioid receptor (hKOR) (Homo sapiens, UniProt P41145).
T1 construct: expressed in transfected cells; host or cells: HEK-293 cells, transient transfection with Fugene6
Description: cell-based. Particulars: for Emax: HEK293, read-out: hKOR Efficacy(%).

Series [2] concerns albino New Zealand strain rabbits. The series is described as follows: Capsaicin-induced ocular pain, palpebral opening. Format: in vivo, rabbit. Conditions: Table VI, 10 mg/ml instilled, 10-30 min. post capsaicin, five animals.
Series [3] has as its target T2, mouse kappa opioid receptor (mKOR) (Mus musculus, UniProt P33534).
T2 construct: Stimulation of Endogenous Mouse Kappa-Opioid Receptor in R1.G1 Cells; host or cells: R1.G1 mouse thymoma cells
Description: cell-based. Particulars: for Emax: read-out: mKOR Efficacy(%).

A further series relates to ICR mice. The series is described as follows: Acetic acid-induced writhing assay in mice. Format: in vivo, mouse. (Writhing tests count abdominal constrictions after an irritant is injected.)
A short description of series [4]: Pharmacokinetics in cynomolgus monkeys, plasma half life. Particulars: male, cynomolgus monkey, iv.
The next series has as its target T3, human mu opioid receptor (Homo sapiens, UniProt P35372).
T3 construct: expressed in transfected cells
The series is described as follows: Similar assay for potency on the human mu opioid receptor. Format: cell-based. How it is done:
Synthetic peptide amides of the invention were tested in a similar assay for potency on the human mu opioid receptor.
The synthetic peptide amide (53) was tested in a similar assay for potency on the human mu opioid receptor.

In the next series the target is CYP2C19 (Homo sapiens, UniProt P33261). The series is described as follows: Cytochrome P450 CYP2C19 inhibition in human liver microsomes. Conditions: percent remaining CYP activity, 10 μM test compound, (54) in Expt 1 and Expt 2. Background: Microsomes from liver hold many membrane-bound enzymes, among them those of drug oxidation.
CYP2C19, sequence (P33261 whole entry): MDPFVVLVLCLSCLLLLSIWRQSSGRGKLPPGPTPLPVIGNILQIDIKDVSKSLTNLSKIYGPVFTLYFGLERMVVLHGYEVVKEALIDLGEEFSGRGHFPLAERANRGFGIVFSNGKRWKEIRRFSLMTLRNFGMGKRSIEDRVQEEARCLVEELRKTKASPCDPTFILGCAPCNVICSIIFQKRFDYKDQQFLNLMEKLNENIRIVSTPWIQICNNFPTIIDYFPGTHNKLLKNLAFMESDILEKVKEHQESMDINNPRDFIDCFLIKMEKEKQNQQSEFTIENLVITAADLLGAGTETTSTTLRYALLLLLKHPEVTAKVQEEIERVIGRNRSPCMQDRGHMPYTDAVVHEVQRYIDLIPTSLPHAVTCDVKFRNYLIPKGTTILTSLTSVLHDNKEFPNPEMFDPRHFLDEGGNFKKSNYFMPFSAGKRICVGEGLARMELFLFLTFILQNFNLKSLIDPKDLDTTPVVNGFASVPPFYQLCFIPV
In the next series the test system is CYP1A. Description: Cytochrome P450 CYP1A inhibition in human liver microsomes. Format: in vitro ADME. Particulars: percent remaining CYP activity, 10 μM test compound, (54) in Expt 1 and Expt 2. How it is done:
Inhibition of cytochrome P450 oxidase isozymes CYP1A, CYP2C9, CYP2C19, CYP2D6 and CYP3A4 by synthetic peptide amide compounds of the invention was determined according to the following methods performed by Cerep (Seattle, Wash.):
In the cytochrome P450 CYP1A assay, human liver microsomes (0.2 mg/ml protein) were incubated for 15 minutes at 37° C. with 10 μM test compound, 1 μM ethoxyresorufin, 1.3 mM NADP, 3.3 mM glucose-6-phosphate and 0.4 U/ml glucose-6-phosphate dehydrogenase. In the absence of test compound, the ethoxyresorufin added as substrate is oxidized to resorufin, and in the presence of an inhibitor of the CYP isozyme, the amount of resorufin produced is reduced. Furafylline was used as a reference inhibitor.
In each assay, the percent inhibition of the cytochrome P450 CYP P450 isozyme was determined as one hundred times the ratio of (1-minus the amount of product in the sample in the presence of the test compound) divided by the amount of product in the sample containing untreated isozyme.

In another series the target is CYP2D6 (Homo sapiens, UniProt P10635). The series is described as follows: Cytochrome P450 CYP2D6 inhibition in human liver microsomes. Particulars: percent remaining CYP activity, 10 μM test compound, (54) in Expt 1 and Expt 2.
CYP2D6, sequence (P10635 whole entry): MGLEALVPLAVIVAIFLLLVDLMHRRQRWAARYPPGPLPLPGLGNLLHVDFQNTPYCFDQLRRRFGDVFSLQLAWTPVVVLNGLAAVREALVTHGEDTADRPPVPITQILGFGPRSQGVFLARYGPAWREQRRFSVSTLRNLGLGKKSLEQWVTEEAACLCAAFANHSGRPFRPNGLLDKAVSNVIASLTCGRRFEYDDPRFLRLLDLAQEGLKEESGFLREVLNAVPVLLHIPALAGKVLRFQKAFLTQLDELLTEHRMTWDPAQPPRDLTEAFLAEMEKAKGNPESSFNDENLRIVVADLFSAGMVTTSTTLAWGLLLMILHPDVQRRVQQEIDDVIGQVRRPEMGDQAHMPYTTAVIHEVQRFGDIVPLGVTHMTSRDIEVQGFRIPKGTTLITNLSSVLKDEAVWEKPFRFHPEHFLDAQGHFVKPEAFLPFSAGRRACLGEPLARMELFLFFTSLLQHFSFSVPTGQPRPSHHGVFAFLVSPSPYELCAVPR
The target of the next series is CYP2C9 (Homo sapiens, UniProt P11712). The series is described as follows: Cytochrome P450 CYP2C9 inhibition in human liver microsomes. Particulars: percent remaining CYP activity, 10 μM test compound, (54) in Expt 1 and Expt 2.
CYP2C9, sequence (P11712 whole entry): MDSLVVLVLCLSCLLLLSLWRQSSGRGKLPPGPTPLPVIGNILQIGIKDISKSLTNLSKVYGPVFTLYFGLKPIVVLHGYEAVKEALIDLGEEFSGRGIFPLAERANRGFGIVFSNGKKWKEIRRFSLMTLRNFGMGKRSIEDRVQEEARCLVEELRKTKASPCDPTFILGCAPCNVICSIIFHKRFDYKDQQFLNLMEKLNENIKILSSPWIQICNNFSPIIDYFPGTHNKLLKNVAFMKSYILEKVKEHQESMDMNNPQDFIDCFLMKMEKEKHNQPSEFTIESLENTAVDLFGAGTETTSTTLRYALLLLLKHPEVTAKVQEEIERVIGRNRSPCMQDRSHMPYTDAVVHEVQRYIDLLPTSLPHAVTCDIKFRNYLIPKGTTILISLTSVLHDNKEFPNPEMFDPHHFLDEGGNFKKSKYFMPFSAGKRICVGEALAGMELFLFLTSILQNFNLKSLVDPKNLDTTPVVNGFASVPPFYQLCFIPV
A short description of series [5]: Inhibition of locomotion in mice (locomotion reduction assay, sedation). Conditions: mouse, in vivo, sc, subcutaneous, sedative effect. As to the method: To determine the potential sedative effect of test compounds, the extent of locomotion after the administration of the test compound or vehicle control can be determined and compared with a specialized apparatus designed for this purpose (Opto-Varimex Activity Meter). At the start of each experiment, each mouse was weighed and examined to determine good health. […] The subcutaneous injection was performed in the back of the neck of the mouse, pinched in a “tent” to allow proper access for the syringe needle. After injection, each animal was placed individually in Plexiglas boxes (43 cm×43 cm) inside the Opto-Varimex Activity Meter apparatus. Before the animal was placed in the apparatus, a thin layer of SANI-CHIPS rodent bedding was placed on the bottom of the Plexiglas box to provide a comfortable environment. Each Opto-Varimex Activity Meter apparatus was then turned on and data acquisition begun by the ATM3 Auto-Track System. The data were processed and results expressed in the same way as described for the writhing assay data above.

The target of the next series is CYP3A4 (Homo sapiens, UniProt P08684). The series is described as follows: Cytochrome P450 CYP3A4 inhibition in human liver microsomes (midazolam). Conditions: percent remaining CYP activity, 10 μM test compound, (54) in Expt 1 and Expt 2.
CYP3A4, sequence (P08684 whole entry): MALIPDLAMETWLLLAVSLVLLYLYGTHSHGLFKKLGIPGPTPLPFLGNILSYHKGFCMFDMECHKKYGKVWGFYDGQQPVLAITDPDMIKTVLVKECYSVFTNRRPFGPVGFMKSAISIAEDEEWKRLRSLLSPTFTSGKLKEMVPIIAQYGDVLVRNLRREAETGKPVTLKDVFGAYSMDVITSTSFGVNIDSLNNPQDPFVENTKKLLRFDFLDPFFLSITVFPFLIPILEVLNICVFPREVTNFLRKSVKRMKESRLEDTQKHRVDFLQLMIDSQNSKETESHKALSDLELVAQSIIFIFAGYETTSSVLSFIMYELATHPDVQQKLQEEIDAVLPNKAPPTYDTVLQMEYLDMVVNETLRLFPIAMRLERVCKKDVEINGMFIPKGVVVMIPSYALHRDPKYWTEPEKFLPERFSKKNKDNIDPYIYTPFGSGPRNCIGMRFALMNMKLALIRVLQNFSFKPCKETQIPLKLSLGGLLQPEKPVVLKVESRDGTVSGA
Series [6] can be described thus: Caco-2 (TC7 subclone) membrane permeability, apical-to-basolateral. Particulars: human. On the technique in general: Caco-2 monolayers are a common model of the intestinal barrier.

T2 sequence (P33534 whole entry): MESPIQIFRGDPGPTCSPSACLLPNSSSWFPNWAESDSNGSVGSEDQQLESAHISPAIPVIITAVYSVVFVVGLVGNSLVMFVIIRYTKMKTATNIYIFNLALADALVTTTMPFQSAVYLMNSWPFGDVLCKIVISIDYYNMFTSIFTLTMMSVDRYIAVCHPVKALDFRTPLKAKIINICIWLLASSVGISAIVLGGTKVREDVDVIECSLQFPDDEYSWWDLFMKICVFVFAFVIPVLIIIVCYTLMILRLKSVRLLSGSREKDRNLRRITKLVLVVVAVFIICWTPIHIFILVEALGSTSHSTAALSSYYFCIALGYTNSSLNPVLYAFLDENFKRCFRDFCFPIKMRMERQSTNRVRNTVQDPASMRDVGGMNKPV
T1 sequence (P41145 whole entry): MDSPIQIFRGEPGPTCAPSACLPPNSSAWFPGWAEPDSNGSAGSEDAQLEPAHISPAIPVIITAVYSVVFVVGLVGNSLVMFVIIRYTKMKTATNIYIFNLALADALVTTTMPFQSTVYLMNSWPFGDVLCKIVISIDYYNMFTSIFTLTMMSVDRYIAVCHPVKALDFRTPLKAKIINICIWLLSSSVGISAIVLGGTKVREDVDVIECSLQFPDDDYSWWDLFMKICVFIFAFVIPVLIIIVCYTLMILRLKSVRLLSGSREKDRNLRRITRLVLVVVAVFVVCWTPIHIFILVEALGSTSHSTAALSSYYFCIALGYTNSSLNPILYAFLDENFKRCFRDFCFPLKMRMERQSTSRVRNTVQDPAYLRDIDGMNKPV
T3 sequence (P35372 whole entry): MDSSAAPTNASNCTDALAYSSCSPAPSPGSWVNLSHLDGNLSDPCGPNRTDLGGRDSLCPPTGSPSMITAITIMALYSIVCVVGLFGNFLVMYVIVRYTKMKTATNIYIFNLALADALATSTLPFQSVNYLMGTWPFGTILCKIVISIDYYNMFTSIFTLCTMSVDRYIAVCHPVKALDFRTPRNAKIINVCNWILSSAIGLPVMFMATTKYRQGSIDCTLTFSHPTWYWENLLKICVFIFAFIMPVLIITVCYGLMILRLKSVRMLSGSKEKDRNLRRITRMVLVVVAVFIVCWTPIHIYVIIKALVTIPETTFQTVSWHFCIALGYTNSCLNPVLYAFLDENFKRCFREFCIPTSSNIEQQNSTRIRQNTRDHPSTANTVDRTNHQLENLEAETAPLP

Turning to `CC(C)C[C@@H](NC(=O)[C@@H](Cc1ccccc1)NC(=O)[C@H](N)Cc1ccccc1)C(=O)N[C@H](CCCCN)C(=O)N1CCC(N2CCC[C@H]2C(=O)O)CC1` [Compound (4), D-Phe-D-Phe-D-Leu-D-Lys-[N-(4-piperidinyl)-L-proline]-OH], in [1], the EC50 (in general, the concentration needed to bring the measured effect to its halfway point) was determined as 0.15 nM and the Emax was determined as 92%. In addition, in [2], the “Mean (% Control) palpebral opening” value turned out to be 56.7 % Control. Also, in series [3], the midpoint of the response, the EC50, lay at 0.075 nM and the Emax amounted to 94%.

Consider `CC(C)C[C@@H](NC(=O)[C@@H](Cc1ccccc1)NC(=O)[C@H](N)Cc1ccccc1)C(=O)N[C@H](CCCCNC(=N)N)C(=O)N1CCC(N2CCC[C@H]2C(=O)O)CC1` [Compound (5), D-Phe-D-Phe-D-Leu-D-Har-[N-(4-piperidinyl)-L-proline]-OH] (H-[dF][dF][dL][d(hArg)]-{Piperidinyl(4-(1-Pro-OH))}), for which, in series [1], the EC50 was determined as 0.17 nM and the Emax was 98%. Also, in the series on ICR mice (iv, 15 min post-dose, mice), the “ED50 (mg/kg, iv, 15 min post-dose)” value came to 0.01 mg/kg. The “% MPE (180 min post-ED90)” value with ICR mice (iv, 180 min post-ED90) was 54 ± 10%. For the same molecule, in series [3], the EC50 was determined as 0.034 nM and the Emax was 89%.

As for `C/N=C(/N)N1CCCN(C(=O)[C@@H](CCCN)NC(=O)[C@@H](CC(C)C)NC(=O)[C@@H](Cc2ccccc2)NC(=O)[C@H](N)Cc2ccccc2)CC1` [Compound (52), D-Phe-D-Phe-D-Leu-D-Orn-[4-(N-methyl)amidino-homopiperazine amide]], the half-life (usually the time in which the quantity being followed falls by half) in series [4] amounted to 69 min. Besides, in series [1], a half-maximal effect (EC50) was put at 0.18 nM and the Emax stood at 96%. Further, in series [3], the EC50 stood at 0.035 nM and the Emax was 101%.

For the molecule `CC(C)C[C@@H](NC(=O)[C@@H](Cc1ccccc1)NC(=O)[C@H](N)Cc1ccccc1)C(=O)N[C@H](CCCN)C(=O)N1CCCN(C(=N)N)CC1` [Compound (53), D-Phe-D-Phe-D-Leu-D-Orn-[4-amidinohomopiperazine amide]], the EC50 on human mu opioid receptor was not below 1000 nM; in series [1] it was 0.15 nM; in [3] it was 0.03 nM. For the same molecule, the Emax in [1] is 103%.

On to `CC(C)C[C@@H](NC(=O)[C@@H](Cc1ccccc1)NC(=O)[C@H](N)Cc1ccccc1)C(=O)N[C@H](CCCN)C(=O)N1CCCN(C2=NCCN2)CC1` [Compound (54), D-Phe-D-Phe-D-Leu-D-Orn-[4-(4,5-dihydro-1H-imidazol-2-yl)homopiperazine amide]], for which the “Percent Activity of Cytochrome P450 CYP2C19” value at CYP2C19 was 94.1% and 97.8%. Moreover, the “Percent Activity of Cytochrome P450 CYP1A” value in the series with CYP1A was 97.1% and 95.8%. Moreover, at CYP2D6, the “Percent Activity of Cytochrome P450 CYP2D6” value was 98.4% and 98.2%. The “Percent Activity of Cytochrome P450 CYP2C9” value on CYP2C9 is 99.2% and 98.2%. Moreover, in series [5], it took a dose of 3.17 mg/kg to reach the 50% effect level (ED50). Moreover, the “Percent Activity of Cytochrome P450 CYP3A4” value at CYP3A4 was 94.7% and 95.9%. In addition, in [1], a half-maximal response (EC50) required 0.13 nM and the Emax was determined as 90%. Besides, the “ED50 in the acetic acid-induced writhing assay” value in the series with ICR mice (subcutaneous, ICR mice) worked out at 74 µg/kg. For the same molecule, in series [3], the response was half-maximal at 0.056 nM (EC50) and the Emax stood at 99%.

Turning to `CNC(=C[N+](=O)[O-])NCCSCc1ccc(CN(C)C)o1` [Ranitidine, ranitidine], the Papp A→B (in general, the apparent permeability from the apical to the basolateral side of a cell layer) at 60 min, 10 μM in series [6] amounted to 0.5 ×10⁻⁶ cm/s.

Values taken from patent US7713937B2, “Synthetic peptide amides and dimeric forms thereof” (Cara Therapeutics, Inc., priority 2006, dated 2010).
